Values of other authors as cited in patent US8597613B2, “Radiolabeled lymphatic staining agents and methods for making” (Iso-Tex Diagnostics, Inc, priority 2004, dated 2013).

Settings: 0.1-0.5 cc injected into the breast following wire-localization procedures

CN(C)c1ccc2nc3ccc(=[N+](C)C)cc-3sc2c1 [methylene blue, phenothiazin-5-ium-3,7-bis(dimethylamino)-chloride]
reported adverse events: no reported adverse events
